Where a chain is given by its changes, count along the chain named.
Experiments:
[1] = system: Rad50 WT (Saccharomyces cerevisiae); test: EMSA; conditions: ATP, 5 mM Mg2+, 150 mM NaCl; 25 mM Tris-Cl pH 7.6, 150 mM NaCl (also 50, 250, 300 mM), 7.5% glycerol, 1 mM beta-mercaptoethanol, 0.125% Igepal, 5 mM MgCl2, with or without 5 mM ATP; 5 nM …
Rad50 [2] = biological target: T1, Rad50 (Saccharomyces cerevisiae, UniProt P12753, L1240F); test: nitrocellulose filter binding, […]-ATP; conditions: 2 uM Rad50, 50 uM ATP incl. 0.1 uM alpha-32P-ATP (labelled compound), 2 mM MgCl2, pH 8.0, RT then ice
T1 construct: full-length Rad50 with C-terminal 1xFLAG tag (DYKDDDDK), tag kept; plasmid pR50.1 (2mu, GAL-PGK-RAD50); overexpressed and purified from yeast
T1 sequence (P12753 1-1312 L1240F): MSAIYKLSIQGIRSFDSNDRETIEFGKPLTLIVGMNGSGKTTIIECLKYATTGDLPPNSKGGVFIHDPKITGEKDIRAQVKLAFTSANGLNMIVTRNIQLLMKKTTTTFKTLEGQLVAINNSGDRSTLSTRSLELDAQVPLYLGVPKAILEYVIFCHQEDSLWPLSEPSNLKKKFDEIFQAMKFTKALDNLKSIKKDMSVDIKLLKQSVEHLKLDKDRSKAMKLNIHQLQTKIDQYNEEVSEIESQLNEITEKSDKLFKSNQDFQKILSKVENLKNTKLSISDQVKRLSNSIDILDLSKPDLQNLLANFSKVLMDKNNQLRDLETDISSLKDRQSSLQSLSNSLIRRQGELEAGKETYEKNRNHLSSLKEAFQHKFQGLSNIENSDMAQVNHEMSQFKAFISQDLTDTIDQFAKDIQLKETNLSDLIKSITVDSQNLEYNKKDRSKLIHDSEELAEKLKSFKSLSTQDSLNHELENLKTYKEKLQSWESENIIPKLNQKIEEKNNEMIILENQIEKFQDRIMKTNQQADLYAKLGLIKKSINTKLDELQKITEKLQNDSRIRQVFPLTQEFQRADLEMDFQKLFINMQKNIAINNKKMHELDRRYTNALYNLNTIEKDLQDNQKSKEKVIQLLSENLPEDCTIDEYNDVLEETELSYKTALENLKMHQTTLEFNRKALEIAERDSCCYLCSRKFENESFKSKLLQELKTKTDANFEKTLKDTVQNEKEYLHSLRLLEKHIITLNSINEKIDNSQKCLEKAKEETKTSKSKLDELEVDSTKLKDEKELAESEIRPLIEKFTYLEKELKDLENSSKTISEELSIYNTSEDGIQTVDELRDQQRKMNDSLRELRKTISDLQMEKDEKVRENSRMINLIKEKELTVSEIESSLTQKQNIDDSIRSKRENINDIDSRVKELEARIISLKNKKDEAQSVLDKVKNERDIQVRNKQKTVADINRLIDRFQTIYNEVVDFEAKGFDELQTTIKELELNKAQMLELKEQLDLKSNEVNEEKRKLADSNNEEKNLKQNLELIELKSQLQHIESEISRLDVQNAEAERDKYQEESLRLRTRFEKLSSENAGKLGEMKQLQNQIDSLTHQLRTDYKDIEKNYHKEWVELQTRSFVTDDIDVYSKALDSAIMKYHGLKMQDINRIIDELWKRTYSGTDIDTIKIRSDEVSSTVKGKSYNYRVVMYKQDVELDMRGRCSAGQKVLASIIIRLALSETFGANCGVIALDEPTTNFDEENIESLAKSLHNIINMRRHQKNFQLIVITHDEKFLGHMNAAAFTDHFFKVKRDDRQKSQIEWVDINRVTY

Rad50 [3] = biological target: T2, Rad50 (Saccharomyces cerevisiae, UniProt P12753, D67Y); test: nitrocellulose filter binding, […]-ATP; conditions: 2 uM Rad50, 50 uM ATP incl. 0.1 uM alpha-32P-ATP (labelled compound), 2 mM MgCl2, pH 8.0, RT then ice
T2 construct: full-length Rad50 with C-terminal 1xFLAG tag (DYKDDDDK), tag kept; plasmid pR50.1 (2mu, GAL-PGK-RAD50); overexpressed and purified from yeast
T2 sequence (P12753 1-1312 D67Y): T1 sequence (P12753 1-1312 L1240F) with D67Y, F1240L

Rad50 [4] = biological target: T3, Rad50 (Saccharomyces cerevisiae, UniProt P12753); test: nitrocellulose filter binding, […]-ATP; conditions: 2 uM Rad50, 50 uM ATP incl. 0.1 uM alpha-32P-ATP (labelled compound), 2 mM MgCl2, pH 8.0, RT then ice
T3 construct: full-length Rad50 with C-terminal 1xFLAG tag (DYKDDDDK), tag kept; plasmid pR50.1 (2mu, GAL-PGK-RAD50); overexpressed and purified from yeast
T3 sequence (P12753 1-1312): T1 sequence (P12753 1-1312 L1240F) with F1240L

Rad50 [5] = biological target: T4, Rad50 (Saccharomyces cerevisiae, UniProt P12753, D67N); test: nitrocellulose filter binding, […]-ATP; conditions: 2 uM Rad50, 50 uM ATP incl. 0.1 uM alpha-32P-ATP (labelled compound), 2 mM MgCl2, pH 8.0, RT then ice
T4 construct: full-length Rad50 with C-terminal 1xFLAG tag (DYKDDDDK), tag kept; plasmid pR50.1 (2mu, GAL-PGK-RAD50); overexpressed and purified from yeast
T4 sequence (P12753 1-1312 D67N): T1 sequence (P12753 1-1312 L1240F) with D67N, F1240L

ATP/Rad50 (Rad50 [2]) [ATP/Rad50]	ATP/Rad50 (Rad50 [3]) [ATP/Rad50]	molar ratio of bound ATP to Rad50 (Rad50 [4]) [ATP/Rad50]	ATP/Rad50 (Rad50 [5]) [ATP/Rad50]	Molecule	Kd [1] [nM]
–	–	–	–	83-mer dsDNA oligonucleotide	180
0.4	0.7	1.1	0.6	Nc1ncnc2c1ncn2[C@@H]1O[C@H](COP(=O)(O)OP(=O)(O)OP(=O)(O)O)[C@@H](O)[C@H]1O [ATP]	–

From article PMC7105138, “Modeling cancer genomic data in yeast reveals selection against ATM function during tumorigenesis” (PLoS Genetics, 2020)
